Results taken from patent publication US4533667A, “Imidazolidinedione derivatives” (Pfizer Inc., priority 1984, dated 1985).

Experiments:
aldose reductase = biological target: T1, aldose reductase (Bos taurus, UniProt P16116); assay: inhibition of aldose reductase enzyme activity (partially purified enzyme from calf lens); type: biochemical; details: for inhibition at 1 µM: 10^-6 M, partially purified aldose reductase from calf lens; for aldose reductase inhibitory activity (in words): qualitative statement, no concentration given
T1 construct: partially purified aldose reductase enzyme obtained from calf lens; from tissue; host or cells: calf lens
Description: (§1) The activity of the compounds of the present invention, as agents for the control of chronic diabetic complications, is determined by their ability to successfully pass one or more of the following standard biological or pharmacological tests, viz., (1) measuring their ability to inhibit the enzyme activity of isolated aldose reductase; (2) measuring their ability to reduce or inhibit sorbitol accumulation in the sciatic nerve of acutely streptozotocinized (i.e., diabetic) rats; (3) measuring their ability to reverse already-elevated sorbitol levels in the sciatic nerve and lens of chronic streptozotocin-induced diabetic rats; (4) measuring their ability to prevent or inhibit galactitol formation in the lens of acutely galactosemic rats, and (5) measuring their ability to delay cataract formation and reduce the severity of lens opacities in chronic galactosemic rats.
The following spiro-oxindole imidazolidinedione final products of Examples 1-5, respectively, were tested at a concentration level of 10^-6 M for their ability to reduce or inhibit aldose reductase enzyme activity via the procedure of S. Hayman et al., as described in the Journal of Biological Chemistry, Vol. 240, p. 877 (1965) and as modified by K. Sestanj et al. in U.S. Pat. No. 3,821,383. In every case, the substrate employed was partially purified aldose reductase enzyme obtained from calf lens.

[1] = test system: sorbitol levels in diabetic rats; assay: inhibition of the formation of sorbitol levels in diabetic rats, oral; type: in vivo, rat; details: dose levels ranging from 0.5 mg/kg to 20 mg/kg
Excerpt: As previously indicated, the spiro-oxindole imidazolidinedione compounds of this invention are readily adapted to therapeutic use as aldose reductase inhibitors for the control of chronic diabetic complications, in view of their ability to reduce lens sorbitol levels in diabetic subjects to a statistically significant degree. […] Furthermore, the herein described compounds of this invention can be administered by either the oral or parenteral routes of administration. […]
as §1

Row | Compound | inhibition at 1 µM (aldose reductase) | aldose reductase inhibitory activity (in words) (aldose reductase) | inhibition of the formation of sorbitol levels in diabetic rats (in words) [1]
1 | O=C1NC(=O)C2(N1)C(=O)N(Cc1cccnc1)c1ccc(F)cc12 (centres unmarked) [Example 3, 1'-(3-pyridylmethyl)-5'-fluorospiro-[imidazolidine-4,3'-indoline]-2,2',5-trione] | 71% | highly potent | –
2 | O=C1NC(=O)C2(N1)C(=O)Nc1cnccc12 (centres unmarked) [Example 5, spiro-[imidazolidine-4,3'-(6-azaindoline)]-2,2',5-trione] | 49% | highly potent | –
3 | O=C1NC(=O)C2(N1)C(=O)N(Cc1cccnc1)c1c(Cl)cc(Cl)cc12 (centres unmarked) [Example 2, 1'-(3-pyridymethyl)-5',7'-dichloro-spiro-[imidazolidine-4,3'-indoline]-2,2',5-trione] | 81% | highly potent | significantly high degree
4 | Nc1ccc2c(c1)NC(=O)C21NC(=O)NC1=O (centres unmarked) [Example 4, 6'-amino-spiro-[imidazolidine-4,3'-indoline]-2,2',5-trione] | 27% | highly potent | –
5 | Nc1cc(Cl)cc2c1NC(=O)C21NC(=O)NC1=O (centres unmarked) [Example 1, 5'-chloro-7'-amino-spiro-[imidazolidine-4,3'-indolidine]-2,2',5-trione] | 72% | highly potent | –
